# From US11986471B2, “Compounds and methods of use” (Tango Therapeutics, Inc., priority 2018, dated 2024)
# Experiments:
# PRMT5 [1] = target: T1, PRMT5 (Homo sapiens, UniProt O14744); assay: PRMT5 IC50 assay in the presence of SAM as cofactor; type: biochemical
# T1 construct: purchased Viva (custom protein)
# In short: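 MTA-dependent versus SAM-dependent inhibition of human PRMT5 was assessed by IC50; conversion factors of 13.5 and 1.5 gave the corresponding Ki.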
# PRMT5 [2] = target: T1, PRMT5; assay: PRMT5 IC50 assay with no cofactor; type: biochemical; details: read-out: No Co-factor IC50
# In short: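 Cofactor-free, SAM and MTA formats; IC50 μM; Ki = IC50/1.5 for SAM, IC50/13.5 for MTA.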
# PRMT5 [3] = target: T1, PRMT5; assay: PRMT5 IC50 assay in the presence of MTA as cofactor; type: biochemical; details: for IC50: PRMT5, MTA as cofactor; for SAM/MTA Ratio: ratio between Ki in the presence of SAM and Ki in the presence of MTA
# In short: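 Each compound is tested on PRMT5 in the presence of SAM, of MTA, and without any cofactor. Ki values are then back-calculated using fixed factors of 1.5 (SAM) and 13.5 (MTA), and the two Ki values are compared as a ratio.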
# HAP1 MTAP-intact = assay: SDMA in-cell western assay, HAP1 MTAP-intact cell line; type: cell-based; details: Homo sapiens
# In short: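 Symmetric dimethylarginine (SDMA) levels were measured by in-cell western in an isogenic HAP1 pair, one expressing endogenous MTAP and one MTAP-null, and IC50 values were derived for each line. Compounds whose IC50 ratio between the lines is 3-fold or more are classed as MTAP-selective.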
# HAP1 MTAP-deleted = assay: SDMA in-cell western assay, HAP1 MTAP-deleted cell line; type: cell-based; details: for IC50: Homo sapiens, HAP1 MTAP-deleted cell line; for MTAP Intact/Deleted Ratio: IC50 ratio HAP1 MTAP-intact / HAP1 MTAP-deleted
# In short: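 Symmetric dimethylarginine (SDMA) levels were measured by in-cell western in MTAP-null HAP1 cells, one half of an MTAP-isogenic pair whose partner line expresses endogenous MTAP. Compound potency is reported as IC50.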
# T1 sequence (O14744 whole entry): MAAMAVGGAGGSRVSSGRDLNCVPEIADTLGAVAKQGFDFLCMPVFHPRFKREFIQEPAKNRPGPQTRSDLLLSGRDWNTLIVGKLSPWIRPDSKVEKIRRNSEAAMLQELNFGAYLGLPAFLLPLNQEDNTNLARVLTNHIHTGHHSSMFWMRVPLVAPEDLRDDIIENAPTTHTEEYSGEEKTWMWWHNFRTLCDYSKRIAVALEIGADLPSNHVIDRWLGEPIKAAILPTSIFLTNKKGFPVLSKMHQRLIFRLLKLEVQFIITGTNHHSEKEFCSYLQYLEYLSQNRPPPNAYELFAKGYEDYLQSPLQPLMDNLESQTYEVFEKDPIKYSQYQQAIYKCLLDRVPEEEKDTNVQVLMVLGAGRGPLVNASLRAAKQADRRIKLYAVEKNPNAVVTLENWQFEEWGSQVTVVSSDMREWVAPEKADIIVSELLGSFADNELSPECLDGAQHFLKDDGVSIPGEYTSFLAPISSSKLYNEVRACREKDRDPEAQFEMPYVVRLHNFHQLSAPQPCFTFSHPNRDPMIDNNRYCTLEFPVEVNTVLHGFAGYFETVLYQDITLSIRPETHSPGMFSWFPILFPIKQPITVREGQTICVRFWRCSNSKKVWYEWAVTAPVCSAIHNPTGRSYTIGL
# T1 sequence (Q9BQA1 whole entry partner): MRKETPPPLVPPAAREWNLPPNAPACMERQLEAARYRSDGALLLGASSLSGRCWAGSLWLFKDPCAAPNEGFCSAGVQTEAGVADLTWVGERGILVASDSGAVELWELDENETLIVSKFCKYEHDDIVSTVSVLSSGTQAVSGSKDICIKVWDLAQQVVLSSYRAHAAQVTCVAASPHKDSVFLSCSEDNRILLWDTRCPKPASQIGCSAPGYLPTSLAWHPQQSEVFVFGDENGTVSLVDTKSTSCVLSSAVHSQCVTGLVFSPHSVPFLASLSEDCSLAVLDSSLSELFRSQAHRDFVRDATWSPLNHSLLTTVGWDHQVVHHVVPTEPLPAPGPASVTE
IC50 (PRMT5 [1]) [nM],IC50 (PRMT5 [2]) [µM],IC50 (PRMT5 [3]) [nM],IC50 (HAP1 MTAP-intact) [µM],IC50 (HAP1 MTAP-deleted) [µM],SMILES,SAM/MTA Ratio (PRMT5 [3]),MTAP Intact/Deleted Ratio (HAP1 MTAP-deleted)
500 to 5000,≥ 5,500 to 5000,≥ 10,≥ 10,"Cc1ncoc1COc1ccc2c(c1C)CCN(C[C@@H](O)CNC(=O)c1cccc(NC3COC3)c1)C2 [Compound 375, N-[(2S)-2-hydroxy-3-{5-methyl-6-[(4-methyl-1,3-oxazol-5-yl)methoxy]-1,2,3,4-tetrahydroisoquinolin-2-yl}propyl]-3-[(oxetan-3-yl)amino]benzamide]",A (a Ki ratio greater than or equal to 10 fold between the Ki in the presence of SAM and the Ki in the presence of MTA),C* (an IC50 ratio of less than 3 fold between the IC50 in the HAP1 MTAP-intact cell line and the HAP1 MTAP-deleted cell line)
50 to 500,0.5 to 5,50 to 500,< 1,< 1,"CC(=O)N1CC(Nc2cc(C(=O)NC[C@H](O)CN3CCc4cc(OCc5cnco5)ccc4C3)nc(C(C)(C)C)n2)C1 [Compound 379, (S)-6-((1-acetylazetidin-3-yl)amino)-2-(tert-butyl)-N-(2-hydroxy-3-(6-(oxazol-5-ylmethoxy)-3,4-dihydroisoquinolin-2(1H)-yl)propyl)pyrimidine-4-carboxamide]",A (a Ki ratio greater than or equal to 10 fold between the Ki in the presence of SAM and the Ki in the presence of MTA),C* (an IC50 ratio of less than 3 fold between the IC50 in the HAP1 MTAP-intact cell line and the HAP1 MTAP-deleted cell line)
500 to 5000,≥ 5,500 to 5000,≥ 10,≥ 10,"Cc1ncoc1COc1ccc2c(c1Br)CCN(C[C@@H](O)CNC(=O)c1cccc(NC3COC3)c1)C2 [Compound 381, (S)—N-(3-(5-bromo-6-((4-methyloxazol-5-yl)methoxy)-3,4-dihydroisoquinolin-2(1H)-yl)-2-hydroxypropyl)-3-(oxetan-3-ylamino)benzamide]",A (a Ki ratio greater than or equal to 10 fold between the Ki in the presence of SAM and the Ki in the presence of MTA),C* (an IC50 ratio of less than 3 fold between the IC50 in the HAP1 MTAP-intact cell line and the HAP1 MTAP-deleted cell line)
50 to 500,0.5 to 5,50 to 500,≥ 10,≥ 10,"O=C(NC[C@H](O)CN1CCc2c(ccc(OCc3cnco3)c2Cl)C1)c1ccnc(NC2CCCC2)c1 [Compound 382, (S)—N-(3-(5-chloro-6-(oxazol-5-ylmethoxy)-3,4-dihydroisoquinolin-2(1H)-yl)-2-hydroxypropyl)-2-(cxclopentylamino)isonicotinamide]",A (a Ki ratio greater than or equal to 10 fold between the Ki in the presence of SAM and the Ki in the presence of MTA),C* (an IC50 ratio of less than 3 fold between the IC50 in the HAP1 MTAP-intact cell line and the HAP1 MTAP-deleted cell line)
50 to 500,0.5 to 5,50 to 500,< 1,< 1,"Cc1ncoc1COc1ccc2c(c1)CCN(C[C@@H](O)CNC(=O)c1cc(NC3CCC3)nc(N3CCOCC3)c1)C2 [Compound 384, 2-(cyclobutylamino)-N-[(2S)-2-hydroxy-3-{6-[(4-methyl-1,3-oxazol-5-yl)methoxy]-1,2,3,4-tetrahydroisoquinolin-2-yl}propyl]-6-(morpholin-4-yl)pyridine-4-carboxamide]",A (a Ki ratio greater than or equal to 10 fold between the Ki in the presence of SAM and the Ki in the presence of MTA),B* (an IC50 ratio greater than or equal to 3 fold but lower than 10 fold between the IC50 in the HAP1 MTAP-intact cell line and the HAP1 MTAP-deleted cell line)
50 to 500,≥ 5,50 to 500,≥ 10,1 to 10,"CCN1CCN(c2nc(NC3COC3)cc(C(=O)NC[C@H](O)CN3CCc4c(ccc(OCc5ocnc5C)c4C)C3)n2)CC1 [Compound 385, 2-(4-ethylpiperazin-1-yl)-N-[(2S)-2-hydroxy-3-{5-methyl-6-[(4-methyl-1,3-oxazol-5-yl)methoxy]-1,2,3,4-tetrahydroisoquinolin-2-yl}propyl]-6-[(oxetan-3-yl)amino]pyrimidine-4-carboxamide]",A (a Ki ratio greater than or equal to 10 fold between the Ki in the presence of SAM and the Ki in the presence of MTA),C* (an IC50 ratio of less than 3 fold between the IC50 in the HAP1 MTAP-intact cell line and the HAP1 MTAP-deleted cell line)
50 to 500,0.5 to 5,50 to 500,1 to 10,< 1,Cc1ncoc1COc1ccc2c(c1)CCN(C[C@@H](O)CNC(=O)c1cc(NC3COC3)nc(N3CCN(C)CC3)n1)C2 [Compound 387],A (a Ki ratio greater than or equal to 10 fold between the Ki in the presence of SAM and the Ki in the presence of MTA),B* (an IC50 ratio greater than or equal to 3 fold but lower than 10 fold between the IC50 in the HAP1 MTAP-intact cell line and the HAP1 MTAP-deleted cell line)
50 to 500,≥ 5,50 to 500,< 1,< 1,"Cc1ncoc1COc1ccc2c(c1)CCN(C[C@@H](O)CNC(=O)c1cc(NC3CCCCC3)ncn1)C2 [Compound 388, 6-(cyclohexylamino)-N-[(2S)-2-hydroxy-3-{6-[(4-methyl-1,3-oxazol-5-yl)methoxy]-1,2,3,4-tetrahydroisoquinolin-2-yl}propyl]pyrimidine-4-carboxamide]",A (a Ki ratio greater than or equal to 10 fold between the Ki in the presence of SAM and the Ki in the presence of MTA),B* (an IC50 ratio greater than or equal to 3 fold but lower than 10 fold between the IC50 in the HAP1 MTAP-intact cell line and the HAP1 MTAP-deleted cell line)

# Second part, the compound before the results:
SMILES,IC50 (PRMT5 [1]) [nM],IC50 (PRMT5 [2]) [µM],IC50 (PRMT5 [3]) [nM],IC50 (HAP1 MTAP-intact) [µM],IC50 (HAP1 MTAP-deleted) [µM],SAM/MTA Ratio (PRMT5 [3]),MTAP Intact/Deleted Ratio (HAP1 MTAP-deleted)
"Cc1c(OCc2cnco2)ccc2c1CCN(C[C@@H](O)CNC(=O)c1cc(NC3CCC3)ncn1)C2 [Compound 376, 6-(cyclobutylamino)-N-[(2S)-2-hydroxy-3-{5-methyl-6-[(1,3-oxazol-5-yl)methoxy]-1,2,3,4-tetrahydroisoquinolin-2-yl}propyl]pyrimidine-4-carboxamide]",500 to 5000,≥ 5,500 to 5000,≥ 10,≥ 10,A (a Ki ratio greater than or equal to 10 fold between the Ki in the presence of SAM and the Ki in the presence of MTA),C* (an IC50 ratio of less than 3 fold between the IC50 in the HAP1 MTAP-intact cell line and the HAP1 MTAP-deleted cell line)
"O=C(NC[C@H](O)CN1CCc2cc(OCc3cnco3)ccc2C1)c1cc(NC2CCC2)nc(N2CCN(C(=O)C3CC3)CC2)c1 [Compound 378, (S)-2-(cyclobutylamino)-6-(4-(cyclopropanecarbonyl)piperazin-1-yl)-N-(2-hydroxy-3-(6-(oxazol-5-ylmethoxy)-3N-dihydroisoquinolin-2(1H)-yl)propyl)isonicotinamide]",50 to 500,0.5 to 5,50 to 500,< 1,< 1,A (a Ki ratio greater than or equal to 10 fold between the Ki in the presence of SAM and the Ki in the presence of MTA),C* (an IC50 ratio of less than 3 fold between the IC50 in the HAP1 MTAP-intact cell line and the HAP1 MTAP-deleted cell line)
"CC(=O)N1CC(Nc2cc(C(=O)NC[C@H](O)CN3CCc4c(ccc(OCc5cnco5)c4Cl)C3)ccn2)C1 [Compound 380, (S)-2-((1-acetylazetidin-3-yl)amino)-N-(3-(5-chloro-6-(oxazol-5-ylmethoxy)-3,4-dihydroisoquinolin-2(1H)-yl)-2-hydroxypropyl)isonicotinamide]",50 to 500,0.5 to 5,50 to 500,≥ 10,≥ 10,A (a Ki ratio greater than or equal to 10 fold between the Ki in the presence of SAM and the Ki in the presence of MTA),C* (an IC50 ratio of less than 3 fold between the IC50 in the HAP1 MTAP-intact cell line and the HAP1 MTAP-deleted cell line)
O=C(NC[C@H](O)CN1CCc2cc(OCc3cnco3)ccc2C1)c1cncc(NC2CCOCC2)c1 [Compound 383],500 to 5000,≥ 5,500 to 5000,≥ 10,≥ 10,A (a Ki ratio greater than or equal to 10 fold between the Ki in the presence of SAM and the Ki in the presence of MTA),C* (an IC50 ratio of less than 3 fold between the IC50 in the HAP1 MTAP-intact cell line and the HAP1 MTAP-deleted cell line)
"Cc1c(OCc2cnco2)ccc2c1CCN(C[C@@H](O)CNC(=O)c1ccnc(NC3CCN(S(C)(=O)=O)CC3)c1)C2 [Compound 386, (S)—N-(2-hydroxy-3-(5-methyl-6-(oxazol-5-ylmethoxy)-3N-dihydroisoquinolin-2(1H)-yl)propyl)-2-((1-(methylsulfonyl)piperidin-4-yl)amino)isonicotinamide]",50 to 500,0.5 to 5,50 to 500,≥ 10,1 to 10,A (a Ki ratio greater than or equal to 10 fold between the Ki in the presence of SAM and the Ki in the presence of MTA),C* (an IC50 ratio of less than 3 fold between the IC50 in the HAP1 MTAP-intact cell line and the HAP1 MTAP-deleted cell line)
